How the values were obtained:
[1] = system: Prostate; assay: NCI SRB cytotoxicity, prostate panel average; format: cell-based, human; conditions: average of cell lines; for CC50: Homo sapiens, read-out: Log10 LC50 (concentration in mol/L causing 50% cell death) (converted)
Experimental: (§1) The pyrazolochalcones (7e, 8e, 10e, 11e, 12e, 13e and 8f) have been tested against fifty nine human tumor cell lines derived from nine cancer types (leukemia, non-small cell lung cancer, colon cancer, CNS cancer, melanoma, ovarian cancer, renal cancer, prostate cancer and breast cancer) as per the NCI protocol. For each compound, dose response curves for individual cell lines have been measured at a minimum of five concentrations at 10 fold dilutions. A protocol of 48 h continuous drug exposure has been used, and a sulforhodamine B (SRB) protein assay has been used to estimate cell viability or growth. The concentration for 50% cell growth inhibition (GI50), 50% cell death (LC50, 50% growth) and total cell growth inhibition (TGI, 0% growth) values were tabulated (Table-1). DMSO was used as control to calculate the values of GI50, LC50 and TGI. The compounds 7e, 8e, 10e, 11e, 12e, 13e and 8f has been evaluated for their in vitro cytotoxicity in […] cell lines from nine human cancer types of leukemia (K-562, SR), non-small cell lung (Hop-62, NCI-H226, NCI-H522), colon (HCT-116, HCT-15, HCC-2998), CNS (SF-539), melanoma (SK-MEL-5, UACC-62, M14), ovarian (IGROV1), renal (A498), prostate (PC3) and breast (BT-549, MDA-MB-435, HS578T) origin. The results are expressed as percent of cell growth determined relative to that of untreated control cells (Table 2).
(§2) Each cancer type represents the average of six to eight different cancer cell lines.

[2] = system: NCI/ADR-RES; assay: NCI SRB cytotoxicity, ovarian NCI/ADR-RES; format: cell-based; conditions: Homo sapiens, 48 h exposure
Experimental: as §1

[3] = system: MOLT-4; assay: NCI SRB cytotoxicity, leukemia MOLT-4; format: cell-based; conditions: Homo sapiens, 48 h exposure
Experimental: as §1

[4] = system: UO-31; assay: NCI SRB cytotoxicity, renal UO-31; format: cell-based; conditions: Homo sapiens, 48 h exposure
Experimental: as §1

[5] = system: SK-MEL-28; assay: NCI SRB cytotoxicity, melanoma SK-MEL-28; format: cell-based; conditions: Homo sapiens, 48 h exposure
Experimental: as §1

[6] = system: SK-MEL-5; assay: NCI SRB cytotoxicity, melanoma SK-MEL-5; format: cell-based; conditions: Homo sapiens, 48 h exposure
Experimental: as §1

[7] = system: MDA-MB-435; assay: NCI SRB cytotoxicity, melanoma MDA-MB-435; format: cell-based; conditions: Homo sapiens, Melanoma panel MDA-MB-435, 48 h exposure
Experimental: as §1

[8] = system: Melanoma; assay: NCI SRB cytotoxicity, melanoma panel average; format: cell-based, human; conditions: average of cell lines; for LC50: Homo sapiens, read-out: Log10 LC50 (concentration in mol/L causing 50% cell death) (converted)
Experimental: as §1, §2

[9] = system: MCF7; assay: NCI SRB cytotoxicity, breast MCF7; format: cell-based; conditions: Homo sapiens, 48 h exposure
Experimental: as §1

[10] = system: M14; assay: NCI SRB cytotoxicity, melanoma M14; format: cell-based; conditions: Homo sapiens, 48 h exposure
Experimental: as §1

[11] = system: OVCAR-8; assay: NCI SRB cytotoxicity, ovarian OVCAR-8; format: cell-based; conditions: Homo sapiens, 48 h exposure
Experimental: as §1

[12] = system: HCT-116; assay: NCI SRB cytotoxicity, colon HCT-116; format: cell-based; conditions: Homo sapiens, 48 h exposure
Experimental: as §1

[13] = system: ACHN; assay: NCI SRB cytotoxicity, renal ACHN; format: cell-based; conditions: Homo sapiens, 48 h exposure
Experimental: as §1

[14] = system: HL-60(TB); assay: NCI SRB cytotoxicity, leukemia HL-60(TB); format: cell-based; conditions: Homo sapiens, 48 h exposure
Experimental: as §1

[15] = system: Colon; assay: NCI SRB cytotoxicity, colon panel average; format: cell-based, human; conditions: average of cell lines; for LC50: Homo sapiens, read-out: Log10 LC50 (concentration in mol/L causing 50% cell death) (converted)
Experimental: as §1, §2

[16] = system: HT29; assay: NCI SRB cytotoxicity, colon HT29; format: cell-based; conditions: Homo sapiens, HT-29, 48 h exposure
Experimental: as §1

[17] = system: IGROV1; assay: NCI SRB cytotoxicity, ovarian IGROV1; format: cell-based; conditions: Homo sapiens, IGROV-1, 48 h exposure
Experimental: as §1

[18] = system: SNB-19; assay: NCI SRB cytotoxicity, CNS SNB-19; format: cell-based; conditions: Homo sapiens, 48 h exposure
Experimental: as §1

[19] = system: NCI-H522; assay: NCI SRB cytotoxicity, non-small cell lung NCI-H522; format: cell-based; conditions: Homo sapiens, 48 h exposure
Experimental: as §1

[20] = system: 786-0; assay: NCI SRB cytotoxicity, renal 786-0; format: cell-based; conditions: Homo sapiens, 48 h exposure
Experimental: as §1

[21] = system: Non-small cell lung; assay: NCI SRB cytotoxicity, non-small cell lung panel average; format: cell-based, human; conditions: average of cell lines; for LC50: Homo sapiens, read-out: Log10 LC50 (concentration in mol/L causing 50% cell death) (converted)
Experimental: as §1, §2

[22] = system: K-562; assay: NCI SRB cytotoxicity, leukemia K-562; format: cell-based; conditions: Homo sapiens, K562, 48 h exposure
Experimental: as §1

[23] = system: CCRF-CEM; assay: NCI SRB cytotoxicity, leukemia CCRF-CEM; format: cell-based; conditions: Homo sapiens, 48 h exposure
Experimental: as §1

[24] = system: SK-MEL-2; assay: NCI SRB cytotoxicity, melanoma SK-MEL-2; format: cell-based; conditions: Homo sapiens, 48 h exposure
Experimental: as §1

[25] = system: SK-OV-3; assay: NCI SRB cytotoxicity, ovarian SK-OV-3; format: cell-based; conditions: Homo sapiens, 48 h exposure
Experimental: as §1

[26] = system: OVCAR-3; assay: NCI SRB cytotoxicity, ovarian OVCAR-3; format: cell-based; conditions: Homo sapiens, 48 h exposure
Experimental: as §1

[27] = system: LOX IMVI; assay: NCI SRB cytotoxicity, melanoma LOX IMVI; format: cell-based; conditions: Homo sapiens, 48 h exposure
Experimental: as §1

[28] = system: MALME-3M; assay: NCI SRB cytotoxicity, melanoma MALME-3M; format: cell-based; conditions: Homo sapiens, 48 h exposure
Experimental: as §1

[29] = system: PC-3; assay: NCI SRB cytotoxicity, prostate PC-3; format: cell-based; conditions: Homo sapiens, 48 h exposure
Experimental: as §1

[30] = system: T-47D; assay: NCI SRB cytotoxicity, breast T-47D; format: cell-based; conditions: Homo sapiens, T47D, 48 h exposure
Experimental: as §1

[31] = system: RXF 393; assay: NCI SRB cytotoxicity, renal RXF 393; format: cell-based; conditions: Homo sapiens, 48 h exposure
Experimental: as §1

[32] = system: SNB-75; assay: NCI SRB cytotoxicity, CNS SNB-75; format: cell-based; conditions: Homo sapiens, 48 h exposure
Experimental: as §1

[33] = system: COLO-205; assay: NCI SRB cytotoxicity, colon COLO-205; format: cell-based; conditions: Homo sapiens, 48 h exposure
Experimental: as §1

[34] = system: BT-549; assay: NCI SRB cytotoxicity, breast BT-549; format: cell-based; conditions: Homo sapiens, 48 h exposure
Experimental: as §1

[35] = system: SF-539; assay: NCI SRB cytotoxicity, CNS SF-539; format: cell-based; conditions: Homo sapiens, 48 h exposure
Experimental: as §1

[36] = system: Renal; assay: NCI SRB cytotoxicity, renal panel average; format: cell-based, human; conditions: average of cell lines; for CC50: Homo sapiens, read-out: Log10 LC50 (concentration in mol/L causing 50% cell death) (converted)
Experimental: as §1, §2

[37] = system: NCIH322M; assay: NCI SRB cytotoxicity, non-small cell lung NCIH322M; format: cell-based; conditions: Homo sapiens, NCI-H322M, 48 h exposure
Experimental: as §1

[38] = system: Breast; assay: NCI SRB cytotoxicity, breast panel average; format: cell-based, human; conditions: average of cell lines; for CC50: Homo sapiens, read-out: Log10 LC50 (concentration in mol/L causing 50% cell death) (converted)
Experimental: as §1, §2

Compound: COc1cc(-c2cc(/C=C/C(=O)c3ccc4c(c3)OCO4)[nH]n2)cc(OC)c1OC [11e, (E)-1-(benzo[d][1,3]dioxol-5-yl)-3-(3-(3,4,5-trimethoxyphenyl)-1H-pyrazol-5-yl)prop-2-en-1-one]
- CC50 [1]: 100 µM
- Log10 GI50 (concentration in mol/L causing 50% growth inhibition) [1]: −4 mol/L
- Log10 TGI (concentration in mol/L causing total growth inhibition (0% growth)) [1]: −4.94 mol/L
- GI50 [2]: 4.23 µM
- GI50 [3]: 2.98 µM
- GI50 [4]: 1.91 µM
- GI50 [5]: 2.48 µM
- GI50 [6]: 4.51 µM
- GI50 [7]: 2.39 µM
- LC50 [8]: 72.4 µM
- Log10 GI50 (concentration in mol/L causing 50% growth inhibition) [8]: −4.14 mol/L
- Log10 TGI (concentration in mol/L causing total growth inhibition) [8]: −4.52 mol/L
- GI50 [9]: 1.67 µM
- GI50 [10]: 3.86 µM
- GI50 [11]: 2.85 µM
- GI50 [12]: 1.85 µM
- GI50 [13]: 1.88 µM
- GI50 [14]: 2.17 µM
- LC50 [15]: 21.9 µM
- Log10 GI50 (concentration in mol/L causing 50% growth inhibition) [15]: −4.66 mol/L
- Log10 TGI (concentration in mol/L causing total growth inhibition) [15]: −5.33 mol/L
- GI50 [16]: 2.18 µM
- GI50 [17]: 5 µM
- GI50 [18]: 4.3 µM
- GI50 [19]: 1.03 µM
- GI50 [20]: 2.33 µM
- LC50 [21]: 53.7 µM
- Log10 GI50 (concentration in mol/L causing 50% growth inhibition) [21]: −4.27 mol/L
- Log10 TGI (concentration in mol/L causing total growth inhibition (0% growth)) [21]: −4.70 mol/L
- GI50 [22]: 3.2 µM
- GI50 [23]: 1.57 µM
- GI50 [24]: 10.3 µM
- GI50 [25]: 5.76 µM
- GI50 [26]: 3.38 µM
- GI50 [27]: 1.82 µM
- GI50 [28]: 4.42 µM
- GI50 [29]: 2.81 µM
- GI50 [30]: 2.51 µM
- GI50 [31]: 1.48 µM
- GI50 [32]: 2.01 µM
- GI50 [33]: 1.87 µM
- GI50 [34]: 2.37 µM
- GI50 [35]: 2.07 µM
- CC50 [36]: 42.7 µM
- Log10 GI50 (concentration in mol/L causing 50% growth inhibition) [36]: −4.37 mol/L
- Log10 TGI (concentration in mol/L causing total growth inhibition (0% growth)) [36]: −4.94 mol/L
- GI50 [37]: 3.01 µM
- CC50 [38]: 295 µM
- Log10 GI50 (concentration in mol/L causing 50% growth inhibition) [38]: −3.53 mol/L
- Log10 TGI (concentration in mol/L causing total growth inhibition (0% growth)) [38]: −4.60 mol/L

Compound: COc1ccc(C(=O)/C=C/c2cc(-c3ccc4c(c3)OCO4)n[nH]2)cc1OC [8f, (E)-3-(3-(benzo[d][1,3]dioxol-5-yl)-1H-pyrazol-5-yl)-1-(3,4-dimethoxyphenyl)prop-2-en-1-one]
- CC50 [1]: 31.6 µM
- Log10 GI50 (concentration in mol/L causing 50% growth inhibition) [1]: −5.66 mol/L
- Log10 TGI (concentration in mol/L causing total growth inhibition (0% growth)) [1]: −5.05 mol/L
- GI50 [3]: 3 µM
- GI50 [4]: 2.3 µM
- GI50 [5]: 5.76 µM
- GI50 [6]: 6.74 µM
- GI50 [7]: 3.03 µM
- LC50 [8]: 1050 µM
- Log10 GI50 (concentration in mol/L causing 50% growth inhibition) [8]: −5.79 mol/L
- Log10 TGI (concentration in mol/L causing total growth inhibition) [8]: −4.80 mol/L
- GI50 [9]: 3.2 µM
- GI50 [10]: 6.36 µM
- GI50 [11]: 2.15 µM
- GI50 [12]: 2.43 µM
- GI50 [13]: 3.49 µM
- GI50 [14]: 2.82 µM
- LC50 [15]: 676 µM
- Log10 GI50 (concentration in mol/L causing 50% growth inhibition) [15]: −5.52 mol/L
- Log10 TGI (concentration in mol/L causing total growth inhibition) [15]: −4.85 mol/L
- GI50 [16]: 2.98 µM
- GI50 [17]: 2.79 µM
- GI50 [18]: 3.2 µM
- GI50 [19]: 1.82 µM
- GI50 [20]: 3.12 µM
- LC50 [21]: 513 µM
- Log10 GI50 (concentration in mol/L causing 50% growth inhibition) [21]: −5.6 mol/L
- Log10 TGI (concentration in mol/L causing total growth inhibition (0% growth)) [21]: −5.08 mol/L
- GI50 [22]: 2.47 µM
- GI50 [23]: 2.52 µM
- GI50 [24]: 6.93 µM
- GI50 [25]: 3.97 µM
- GI50 [26]: 2.02 µM
- GI50 [27]: 1.97 µM
- GI50 [28]: 7.32 µM
- GI50 [29]: 2.5 µM
- GI50 [30]: 3.2 µM
- GI50 [31]: 2.42 µM
- GI50 [32]: 1.98 µM
- GI50 [33]: 3.84 µM
- GI50 [34]: 1.9 µM
- GI50 [35]: 1.91 µM
- CC50 [36]: 32.4 µM
- Log10 GI50 (concentration in mol/L causing 50% growth inhibition) [36]: −5.46 mol/L
- Log10 TGI (concentration in mol/L causing total growth inhibition (0% growth)) [36]: −5.01 mol/L
- GI50 [37]: 2.48 µM
- CC50 [38]: 39.8 µM
- Log10 GI50 (concentration in mol/L causing 50% growth inhibition) [38]: −4.76 mol/L
- Log10 TGI (concentration in mol/L causing total growth inhibition (0% growth)) [38]: −5.05 mol/L

Reference: patent publication US9604933B2, “Pyrazolochalcones as potential anticancer agents” (COUNCIL OF SCIENTIFIC AND INDUSTRIAL RESEARCH, priority 2013, dated 2017)
